Reference: patent publication US8211897B2, “Inhibitors of cathepsin B” (ViroBay, Inc., priority 2008, dated 2012)
pIC50: −log10 of the molar value.

Legend:
[1] = target: T1, Human Liver Cathepsin B (Homo sapiens, UniProt P07858); experiment: Biochemical assay of inhibition of Cathepsin B enzymatic activity; conditions: 20 uM Boc-Leu-Arg-Arg-AMC, pH 5.5, 15 minutes preincubation, 30 minutes at 25° C.
T1 construct: from tissue; host or cells: human liver
Procedure: The test compound of Formula (I) was dissolved in dimethylsulfoxide (DMSO) and diluted in assay buffer. An 8 point dose response curve was completed in order to evaluate the IC50 value of inhibition of Cathepsin B enzymatic activity (IC50 is defined as the concentration which inhibited 50% of maximal enzyme activity). The assay protocol was adapted from Barrett, 1980. Human Liver Cathepsin B was incubated in assay buffer (50 mM sodium acetate, pH 5.5, 1 mM dithiothreitol (DTT), 2 mM ethylenediaminetetraacetic acid (EDTA) with 20 uM peptide substrate (Boc-Leu-Arg-Arg-AMC) with the compounds diluted from DMSO stocks or DMSO vehicle alone. Final DMSO concentration was retained at 1% in the assay. The test compound was preincubated with the enzyme for 15 minutes at 25° C. Reaction was started with the addition of substrate, and allowed to proceed for 30 minutes at 25° C. Substrate cleavage was monitored with spectrofluorimetric quantitation of methylcoumarylamide (AMC).

[2] = target: T2, Cathepsin B in human cells (HUVECs) (Homo sapiens, UniProt P07858); experiment: Cellular activity-based probe (whole-cell enzyme occupancy) assay; conditions: serum-free media, 4 hours compound treatment, 125I-DMK probe 1 hour
T2 construct: endogenous in cells; host or cells: HUVEC (human umbilical vein endothelial cells)
Procedure: Activity of Cathepsin B in cells was measured with the use of an activity-based radioactive probe in a whole-cell enzyme occupancy assay. This method was used to determine the specific potencies of compounds on Cathepsin B in the intracellular environment. The probe used was a peptide diazomethylketone which binds to Cathepsins, including Cathepsin B, potently and irreversibly. This cell-permeable probe binds to active Cathepsin B and binding can be quantified to determine the level of Cathepsin B activity in cells. Cathepsin B enzyme in cells which has bound to an inhibitor is not active and as such not available for binding by the activity-based probe.
The method used was based on a modification of a published method (Falgueyret J-P, et al. 2004. Anal. Biochem. 335:218-227). Human umbilical vein endothelial cells (HUVECs) were grown in 24 well plates in standard growth conditions. […]
To analyze probe-labeled proteins, samples were boiled for 5 minutes and analyzed by SDS-PAGE. […] The band intensities on the autoradiographs were determined. Autoradiographs were scanned using a Microtek ScanMakeri900 scanner and bands quantified with a program such as the BioRad Imaging program QuantityOne or ImageJ. Compound potencies were calculated as a % of the no inhibitor control and IC50 values were extrapolated from the dose-response curves using a suitable program like GraphPad Prism.

[3] = test system: Liver fibrosis induced in mice by carbon tetrachloride; experiment: Carbon tetrachloride-induced liver fibrosis model; format: in vivo; conditions: CCl4 fibrosis, once daily from day 12, 250 mg/kg and 50 mg/kg, terminal day 33
Procedure: Liver fibrosis was induced in mice by intraperitoneal administration of carbon tetrachloride every 5 days over a 28-day period (days 0-28). On day 11, plasma alanine aminotransferase (ALT) levels and aspertate aminotransferase (AST) were measured from representative mice to confirm liver damage. (2S,4R)-1-((S)-(3-tert-butylureido)-3,3-dimethylbutanoyl]-N-((S)-1-cyclopropylamino)-1,2-dioxohexan-3-yl)-4-(7-methoxy-2-(1H-pyrazol-1-yl)-quinolin-4-yloxy)pyrrolidine-2-carboxamide was administered therapeutically, once daily, starting on day 12, […]. On day 33, terminal plasma AST and ALT, liver hydroxyproline, PK/PD, and histology were assessed.

Row | SMILES | pIC50 [1] | also measured
1 | CCC[C@H](NC(=O)[C@@H]1CC(Oc2cc(-n3cccn3)nc3cc(OC)ccc23)CN1C(=O)[C@@H](NC(=O)NCC1CC1)C(C)(C)C)C(=O)C(=O)NC1CC1 (stereo partly shown) | 7.08 | –
2 | CCC[C@H](NC(=O)[C@@H]1C[C@@H](Oc2cc(-n3cccn3)nc3cc(OC)ccc23)CN1C(=O)[C@@H](NC(=O)NCC(C)(C)C)C(C)(C)C)C(=O)C(=O)NC1CC1 [(2S,4R)-N-((S)-1-(cyclopropylamino)-1,2-dioxohexan-3-yl)-1-((S)-3,3-dimethyl-2-(3-neopentylureido)butanoyl)-4-(7-methoxy-2-(1H-pyrazol-1-yl)quinolin-4-yloxy)pyrrolidine-2-carboxamide] | 7.21 | –
3 | CCC[C@H](NC(=O)[C@@H]1CC(Oc2cc(-n3cccn3)nc3cc(OC)ccc23)CN1C(=O)[C@@H](NC(=O)NC(C)(C)C)C(C)(C)C)C(=O)C(=O)NC1CC1 (stereo partly shown) [Example 1] | > 6.30 | pIC50 [2]: 7.62; liver hydroxyproline [3]: decreased; plasma ALT [3]: decreased; plasma AST [3]: decreased
4 | COc1ccc2c(O[C@@H]3C[C@@H](C(=O)N[C@@H](CC4CCC4)C(=O)C(=O)NC4CC4)N(C(=O)[C@@H](NC(=O)NC(C)(C)C)C(C)(C)C)C3)cc(-n3cccn3)nc2c1 [Example 2, (2S,4R)-1-((S)-(3-tert-butylureido)-3,3-dimethylbutanoyl]-N-((S)-1-cyclobutyl-4-(cyclopropylamino)-3,4-dioxobutan-2-yl)-4-(7-methoxy-2-(1H-pyrazol-1-yl)-quinolin-4-yloxy)pyrrolidine-2-carboxamide] | > 6.30 | pIC50 [2]: 7.72; liver hydroxyproline [3]: reduces; plasma ALT [3]: reduces; plasma AST [3]: reduces
5 | COc1ccc2c(O[C@@H]3C[C@@H](C(=O)N[C@@H](CC4CC4)C(=O)C(=O)NC4CC4)N(C(=O)[C@@H](NC(=O)NC(C)(C)C)C(C)(C)C)C3)nccc2c1 [Example 10, (2S,4R)-1-((S)-2-(3-tert-Butylureido)-3,3-dimethylbutanoyl)-N-((S)-1-cyclopropyl-4-(cyclopropylamino)-3,4-dioxobutan-2-yl)-4-(6-methoxyisoquinolin-1-yloxy)-pyrrolidine-2-carboxamide] | 7.25 | –
6 | CCOc1ccc2c(O[C@@H]3C[C@@H](C(=O)N[C@@H](CC4CC4)C(=O)C(=O)NC4CC4)N(C(=O)[C@@H](NC(=O)NC(C)(C)C)C(C)(C)C)C3)nccc2c1 [Example 11, (2S,4R)-1-((S)-2-(3-tert-Butylureido)-3,3-dimethylbutanoyl)-N-((S)-1-cyclopropyl-4-(cyclopropylamino)-3,4-dioxobutan-2-yl)-4-(6-ethoxyisoquinolin-1-yloxy)-pyrrolidine-2-carboxamide] | 7.31 | –
7 | CCCC[C@H](NC(=O)[C@@H]1CC(Oc2nccc3cc(OC)ccc23)CN1C(=O)[C@@H](NC(=O)NC(C)(C)C)C(C)(C)C)C(=O)C(=O)NC1CC1 (stereo partly shown) [Example 13] | 7.55 | –

Second part, led by results:

Row | pIC50 [1] | SMILES | also measured
8 | 7.07 | CCC[C@H](NC(=O)[C@@H]1CC(Oc2cc(-c3ccccn3)nc3ccsc23)CN1C(=O)[C@@H](NC(=O)NC(C)(C)C)C(C)(C)C)C(=O)C(=O)NC1CC1 (stereo partly shown) | –
9 | 7.57 | CCC[C@H](NC(=O)[C@@H]1C[C@@H](Oc2nccc3cc(OC)ccc23)CN1C(=O)[C@@H](NC(=O)NC(C)(C)C)C(C)(C)C)C(=O)C(=O)NC1CC1 [Example 9] | –
10 | 7.35 | CCC[C@H](NC(=O)[C@@H]1C[C@@H](Oc2nccc3cc(OCC)ccc23)CN1C(=O)[C@@H](NC(=O)NC(C)(C)C)C(C)(C)C)C(=O)C(=O)NC1CC1 [Example 12, (2S,4R)-1-((S)-2-(3-tert-Butylureido)-3,3-dimethylbutanoyl)-N-((S)-1-(cyclopropylamino)-1,2-dioxohexan-3-yl)-4-(6-ethoxyisoquinolin-1-yloxy)-pyrrolidine-2-carboxamide] | –
11 | 7.49 | CCC[C@H](NC(=O)[C@@H]1C[C@@H](Oc2nc(C)cc3cc(OC)ccc23)CN1C(=O)[C@@H](NC(=O)NC(C)(C)C)C(C)(C)C)C(=O)C(=O)NC1CC1 [Example 15, (2S,4R)-1-((S)-2-(3-tert-butylureido)-3,3-dimethylbutanoyl)-N-((S)-1-(cyclopropylamino)-1,2-dioxohexan-3-yl)-4-(6-methoxy-3-methylisoquinolin-1-yloxy)pyrrolidine-2-carboxamide] | –
12 | 7.35 | CCC[C@H](NC(=O)[C@@H]1C[C@@H](Oc2nc(-c3ccccn3)nc3sccc23)CN1C(=O)[C@@H](NC(=O)NC(C)(C)C)C(C)(C)C)C(=O)C(=O)NC1CC1 [Example 16, (2S,4R)-1-((S)-2-(3-tert-butylureido)-3,3-dimethylbutanoyl)-N-((S)-1-(cyclopropylamino)-1,2-dioxohexan-3-yl)-4-(2-(pyridin-2-yl)thieno[2,3-d]pyrimidin-4-yloxy)pyrrolidine-2-carboxamide] | –
13 | 7.48 | CCC[C@H](NC(=O)[C@@H]1C[C@@H](Oc2nc(-c3ccccn3)nc3ccsc23)CN1C(=O)[C@@H](NC(=O)NC(C)(C)C)C(C)(C)C)C(=O)C(=O)NC1CC1 [Example 17, (2S,4R)-1-((S)-2-(3-tert-butylureido)-3,3-dimethylbutanoyl)-N-((S)-1-(cyclopropylamino)-1,2-dioxohexan-3-yl)-4-(2-(pyridin-2-yl)thieno[3,2-d]pyrimidin-4-yloxy)pyrrolidine-2-carboxamide] | –
14 | 7.14 | CCC[C@H](NC(=O)[C@@H]1C[C@@H](Oc2nc(-c3cc(C)nn3C)nc3ccsc23)CN1C(=O)[C@@H](NC(=O)NC(C)(C)C)C(C)(C)C)C(=O)C(=O)NC1CC1 [Example 18, (2S,4R)-1-((S)-2-(3-tert-butylureido)-3,3-dimethylbutanoyl)-N-((S)-1-(cyclopropylamino)-1,2-dioxohexan-3-yl)-4-(2-(1,3-dimethyl-1H-pyrazol-5-yl)thieno[3,2-d]pyrimidin-4-yloxy)pyrrolidine-2-carboxamide] | –
